These are literature values, as cited in patent US20100160306A1, “Acylated Piperidine Derivatives as Melanocortin-4 Receptor Agonists” (priority 2005, published 2010).

The conditions of this data set: injected intramuscularly or subcutaneously, males with psychogenic erectile dysfunction.

On to “Ac-Nle-c[Asp-His-DPhe-Arg-Trp-Lys]-NH2 [MT-II]”, for which the response rate is 75%.
